{
  "source": "patent US8501816B2",
  "about": "“Antitussive compositions comprising memantine” (Cerecor, Inc., priority 2010, dated 2013)",
  "key": {"[1]": {"tested_on": "citric acid evoked coughing", "experiment": "Microinjection of NMDA receptor antagonists into the central termination sites of the cough receptors", "assay_type": "in vivo, guinea pig", "details": "anesthetized guinea pigs"}, "[2]": {"tested_on": "citric acid induced cough", "experiment": "Citric acid induced cough in conscious guinea pigs", "details": "for Mean ± sem cumulative coughs / ≧15 Cumulative coughs/total number of guinea pigs: potentially synergistic agents; for Effect of single agent on citric acid (0.01-0.3M) induced cough: oral, 60 minutes prior, memantine 3, guaifenesin 100, diphenhydramine 10, benzonatate 30, ambroxol 100 mg/kg; for Effect on cumulative number of coughs evoked by lower concentrations of citric acid (0.01-0.1 M): 30 mg/kg; for Cumulative numbers of cough, median, citric acid 0.01M / Cumulative numbers of cough, median, citric acid 0.1M / Cumulative numbers of cough, median, citric acid 0.3M / Effect on cumulative number of coughs evoked by citric acid (0.01-0.3M) compared to controls: 30 mg/kg intraperitoneally", "experimental": "Male Hartley guinea pigs (200-700 g) were studied and all experiments were first approved by the institutional Animal Care and Use Committee.\nAnimals were placed in a transparent chamber (Buxco Research Systems, Wilmington, N.C.) with a continuous flow of air and exposed to increasing concentrations of citric acid (0.01 M-0.3 M) is delivered by an ultrasonic nebulizer generating aerosol particles of 3-6 μm diameter. Coughs were counted during a 5 minute nebulization period and over the subsequent 5 minutes with the assistance of sound and pressure monitoring from the chamber. Respiratory rate and tidal volume were monitored throughout via a calibrated pressure transducer (Emka Technologies, Falls Church, Va.).\nEach of these drugs was administered orally in half-log increments (e.g. 3 mg/kg, 10 mg/kg, 30 mg/kg) in an unpaired experimental design (each animal received only 1 dose of drug). The drugs were administered 60 minutes prior to citric acid challenge, which consisted of 5 minute challenges with aerosols of increasing concentrations of citric acid (0.01-0.3M), with 5 minute intervals in between escalating doses of the tussive stimulus."}, "[3]": {"experiment": "Respiratory parameters during cough challenge", "assay_type": "in vivo, guinea pig", "details": "50 mg/kg; controls 117.7(±26.3)", "method": "Using a similar chamber and nebulizer system, animals were treated first with aerosolized peptidase inhibitors (captopril 0.1 μM and thiorphan 0.1 μM, 5 minutes nebulization) to reduce bradykinin degradation and enhance tussive responses evoked by bradykinin (unpublished observations). Animals were then exposed to increasing concentrations of aerosolized bradykinin (0.1-3 mg/mL), again for 5 minute periods. Coughs are counted during this and the subsequent 5 minutes. Pressure changes within the chamber are used to monitor respiratory rate (Biopac Systems Inc, Goleta, Calif.)."}, "cough": {"tested_on": "cough", "details": "cited from earlier work"}, "[4]": {"experiment": "Sedation and side effects observed in the cough studies", "details": "for Sedation (FIG. 20): 30 mg/kg intraperitoneally; for Animals with mild to moderate sedation: n=8; for Sedation: 50 mg/kg, precluded assessment of cough"}, "[5]": {"tested_on": "freezing behavior during cued fear conditioning", "experiment": "Cued fear conditioning in mice", "assay_type": "in vivo", "details": "diphenhydramine 20 mg/kg IP, p=0.061", "method": "The effects of memantine on enhancing cognition were investigated with fear conditioning tests on mice. Specifically, the fear conditioning test exposed mice to a conditioned stimulus (a tone) and an unconditioned stimulus (a mild electric shock). The mice learned to associate the tone with the shock as reflected by freezing. After being adequately conditioned, the mice were administered memantine or a control (vehicle alone). […] Fear Conditioning: Fear conditioning mouse chambers (7''W×7''D×12''H; Coulbourne Instruments, […] Valley, Pa.) were housed in sound attenuating chambers. A camera was mounted on the ceiling of the chamber to capture mouse behavior (FreezeFrame software, Coulbourne Instruments, […] Valley, Pa.); data were analyzed by Freezeview software (Coulbourne Instruments, […] Valley, Pa.). Fear conditioning chambers were calibrated prior to each experiment to ensure that each chamber delivers the same shock intensity. […] Pavlovian fear conditioning refers to the learning of associations between a negative reinforcer (e.g., a mild electric foot shock/s), a novel context (e.g. a context) and/or a specific, neutral, cue (e.g., tone or white noise). To assess contextual and cued (tone) learning and memory, a standardized fear conditioning task developed for the evaluation of memory in rodents was used. Protocol: […] Cue-induced Conditioning Testing: Mice were tested for cued memory 48 hours after training. The cued conditioning test was conducted in an altered context (i.e., a different test chamber). […] Statistical Analysis: Data are represented as the mean and standard error to the mean. Data were analyzed by analysis of variance (ANOVA) followed by Fisher PLSD, or unpaired t-tests, when appropriate to test a planned comparison. An effect was considered significant if p<0.05. Statistical outliers that fell above or below two standard deviations from the mean were removed from the final analysis."}, "Caco-2 cells": {"tested_on": "Caco-2 cells", "experiment": "Memantine in vitro intestinal permeability (Caco-2 cells)", "assay_type": "in vitro ADME", "details": "FIG. 12"}, "[6]": {"details": "in vivo, po; cited from earlier work"}},
  "note": "Marks after values point to notes of the source that are not given here.",
  "data": [
    {"smiles": "NC(CCCP(=O)(O)O)C(=O)O", "note": "(stereo not shown) [AP5]", "values": [
      {"measurement": "Effect of microinjection on citric acid evoked coughing", "setting": "[1]", "value": "prevents citric acid evoked coughing"}
    ]},
    {"smiles": "Nc1c(Br)cc(Br)cc1CN[C@H]1CC[C@H](O)CC1", "note": "[Ambroxol]", "values": [
      {"measurement": "Mean ± sem cumulative coughs", "setting": "[2]; 100 mg/kg po", "value": "13 ± 4"},
      {"measurement": "≧15 Cumulative coughs/total number of guinea pigs", "setting": "[2]; 100 mg/kg po", "value": "2/6"},
      {"measurement": "Effect of single agent on citric acid (0.01-0.3M) induced cough", "setting": "[2]", "value": "failed to inhibit cough"}
    ]},
    {"smiles": "CCCCNc1ccc(C(=O)OCCOCCOCCOCCOCCOCCOCCOCCOCCOC)cc1", "note": "[Benzonatate]", "values": [
      {"measurement": "Mean ± sem cumulative coughs", "setting": "[2]; 10 mg/kg po", "value": "24 ± 4"},
      {"measurement": "≧15 Cumulative coughs/total number of guinea pigs", "setting": "[2]; 10 mg/kg po", "value": "3/3"},
      {"measurement": "Mean ± sem cumulative coughs", "setting": "[2]; 30 mg/kg po", "value": "13 ± 4"},
      {"measurement": "≧15 Cumulative coughs/total number of guinea pigs", "setting": "[2]; 30 mg/kg po", "value": "2/5"},
      {"measurement": "Effect of single agent on citric acid (0.01-0.3M) induced cough", "setting": "[2]", "value": "failed to inhibit cough"}
    ]},
    {"smiles": "COc1ccc2c(c1)[C@]13CCCC[C@@H]1[C@H](C2)N(C)CC3", "note": "[Dextromethorphan]", "values": [
      {"measurement": "Effect of microinjection on citric acid evoked coughing", "setting": "[1]", "value": "prevents citric acid evoked coughing"},
      {"measurement": "mean breathing frequency", "setting": "[3]", "value": "90.0(±13.7) breaths/min"},
      {"measurement": "Efficacy in cough associated with upper respiratory tract infections", "setting": "cough; Bolser 2006", "value": "ineffective"},
      {"measurement": "Effect on cumulative number of coughs evoked by lower concentrations of citric acid (0.01-0.1 M)", "setting": "[2]", "value": "significantly reduced the cumulative number of coughs"},
      {"measurement": "Cumulative numbers of cough, median, citric acid 0.01M", "setting": "[2]", "value": 0.0},
      {"measurement": "Cumulative numbers of cough, median, citric acid 0.1M", "setting": "[2]", "value": "0.5*"},
      {"measurement": "Cumulative numbers of cough, median, citric acid 0.3M", "setting": "[2]", "value": 7.5},
      {"measurement": "Effect on cumulative number of coughs evoked by citric acid (0.01-0.3M) compared to controls", "setting": "[2]", "value": "failed to produce a statistically significant reduction in cumulative coughs"},
      {"measurement": "Sedation (FIG. 20)", "setting": "[4]", "value": "moderate to severe sedation in the majority of animals studied"},
      {"measurement": "Animals with mild to moderate sedation", "setting": "[4]; 30 mg/kg", "value": 62.5, "unit": "%"},
      {"measurement": "Duration of sedation", "setting": "[4]; 30 mg/kg, persisted throughout the citric acid challenge", "value": "> 2", "unit": "h"},
      {"measurement": "Sedation", "setting": "[4]", "value": "severe sedation"}
    ]},
    {"smiles": "CN(C)CCOC(c1ccccc1)c1ccccc1", "note": "[Diphenhydramine]", "values": [
      {"measurement": "cue-induced fear conditioning, CS phase, vs vehicle-vehicle", "setting": "[5]", "value": "strong trend toward decreased cue-induced fear conditioning"}
    ]},
    {"smiles": "COc1ccccc1OCC(O)CO", "note": "(stereo not shown) [Guaifenesin, 3-(2-methoxyphenoxy)-1,2-propanediol]", "values": [
      {"measurement": "Mean ± sem cumulative coughs", "setting": "[2]; 50 mg/kg po", "value": "30 ± 1"},
      {"measurement": "≧15 Cumulative coughs/total number of guinea pigs", "setting": "[2]; 50 mg/kg po", "value": "3/3"},
      {"measurement": "Mean ± sem cumulative coughs", "setting": "[2]; 100 mg/kg po", "value": "20 ± 5"},
      {"measurement": "≧15 Cumulative coughs/total number of guinea pigs", "setting": "[2]; 100 mg/kg po", "value": "3/4"},
      {"measurement": "Effect of single agent on citric acid (0.01-0.3M) induced cough", "setting": "[2]", "value": "failed to inhibit cough"}
    ]},
    {"smiles": "CNC1(c2ccccc2Cl)CCCCC1=O", "note": "(stereo not shown) [Ketamine]", "values": [
      {"measurement": "mean breathing frequency", "setting": "[3]", "value": "92.3(±18.8) breaths/min"},
      {"measurement": "Efficacy in chronic cough patients", "setting": "cough; Young et al.", "value": "ineffective"},
      {"measurement": "Effect on cumulative number of coughs evoked by lower concentrations of citric acid (0.01-0.1 M)", "setting": "[2]", "value": "not"},
      {"measurement": "Cumulative numbers of cough, median, citric acid 0.01M", "setting": "[2]", "value": 0.0},
      {"measurement": "Cumulative numbers of cough, median, citric acid 0.1M", "setting": "[2]", "value": 1.5},
      {"measurement": "Cumulative numbers of cough, median, citric acid 0.3M", "setting": "[2]", "value": 11.0},
      {"measurement": "Effect on cumulative number of coughs evoked by citric acid (0.01-0.3M) compared to controls", "setting": "[2]", "value": "failed to produce a statistically significant reduction in cumulative coughs"},
      {"measurement": "Sedation (FIG. 20)", "setting": "[4]", "value": "moderate to severe sedation in the majority of animals studied"},
      {"measurement": "Time at which sedation reversed", "setting": "[4]; 30 mg/kg, during the cough challenge", "value": "40-50 minutes post-injection"},
      {"measurement": "Animals with mild to moderate sedation", "setting": "[4]; 30 mg/kg", "value": 87.5, "unit": "%"},
      {"measurement": "Sedation", "setting": "[4]", "value": "severe sedation"}
    ]},
    {"smiles": "CC1CCC(C(C)C)C(O)C1", "note": "(stereo not shown) [Menthol]", "values": [
      {"measurement": "Mean ± sem cumulative coughs", "setting": "[2]; 30 mg/kg po", "value": "21 ± 3"},
      {"measurement": "≧15 Cumulative coughs/total number of guinea pigs", "setting": "[2]; 30 mg/kg po", "value": "3/3"},
      {"measurement": "Mean ± sem cumulative coughs", "setting": "[2]; 100 mg/kg po", "value": "11±2"},
      {"measurement": "≧15 Cumulative coughs/total number of guinea pigs", "setting": "[2]; 100 mg/kg po", "value": "1/7"}
    ]},
    {"smiles": "N[C@@H](Cc1cc(CP(=O)(O)O)cc(-c2ccccc2Cl)c1)C(=O)O", "note": "[SDZ220581]", "values": [
      {"measurement": "Effect of microinjection on citric acid evoked coughing", "setting": "[1]", "value": "prevents citric acid evoked coughing"}
    ]},
    {"smiles": "CCCCCCCC/C=C\\CCCCCCCC(=O)O", "note": "[oleic acid]", "values": [
      {"measurement": "Effect as permeation enhancer on memantine Caco-2 permeability", "setting": "Caco-2 cells", "value": "ineffective"}
    ]},
    {"smiles": "CC(O)CO", "note": "(stereo not shown) [propylene glycol]", "values": [
      {"measurement": "Effect as permeation enhancer on memantine Caco-2 permeability", "setting": "Caco-2 cells", "value": "ineffective"}
    ]},
    {"smiles": "Cc1ccc(-c2nc3ccc(C)cn3c2CC(=O)N(C)C)cc1", "note": "[zolpidem]", "values": [
      {"measurement": "orally bioavailable", "setting": "[6]", "value": "less than 70%"}
    ]}
  ]
}
